Tested on: eggs of cat flea
Assay: Hatching inhibition of cat flea eggs on treated filter paper (Test Example 1)
Format: in vivo, cat flea (Ctenocephalides felis)
Conditions: 26° C., 95% humidity, 5 days, corrected against non-treated hatching ratio 92.4%
Experimental: Each of pyriproxyfen, 1S,3S,4S,6R-carane-3,4-diol and a mixture thereof was diluted with acetone, added dropwise to a filter paper (3.8 cm in diameter) and dried. About 20 eggs (within 24 hours after laid) of cat flea were set on the filter paper prepared above. The filter paper was held in a plastic plate, kept 26° C. of temperature and 95% of humidity for 5 days and hatching was observed.
Hatching inhibition ratio (%) in Table represents a corrected inhibition ratio (%) which is calculated by the following:
Hatching inhibition ratio (%)={(C−T)/C}×100
wherein C is a hatching ratio (92.4%) of flea at non-treated area and T is a hatching ratio of flea at treated area.
In the table, PY means pyriproxyfen and CA means 1S,3S,4S,6R-carane-3,4-diol. The treated dosage unit is mg/m^2.

CC(COc1ccc(Oc2ccccc2)cc1)Oc1ccccn1 (stereo not drawn) [PY, pyriproxyfen]
Hatching inhibition ratio (%) (treated dosage 0.1 mg/m^2 on filter paper): 58.1%

CC1(C)[C@@H]2C[C@H](O)[C@@](C)(O)C[C@@H]21 [CA, 1S,3S,4S,6R-carane-3,4-diol]
Hatching inhibition ratio (%) (treated dosage 10 mg/m^2 on filter paper): 3.1% | Hatching inhibition ratio (%) (treated dosage 100 mg/m^2 on filter paper): 12.1%

Reference: patent publication US6346261B1, “Pesticidal composition” (priority 1997, dated 2002)
